Measurements as given in BindingDB's records for PubMed 32883635 (National Institute of Pharmaceutical Education and Research …, 2020).

Target: not listed separately
Assay: Inhibition of wild type Escherichia coli FabI assessed as inhibition of bacterial growth

Structure (SMILES) | Ki
Oc1ccccc1Oc1ccccc1 [2-phenoxylphenol] | 0.5 nM
Cc1ccc(Oc2ccccc2)c(O)c1 [PT53] | 7 nM
Oc1cc(F)ccc1Oc1ccccc1 [PT55] | 0.7 nM

Target: T1, Enoyl-[acyl-carrier-protein] reductase [NADPH] FabI (Staphylococcus aureus (strain MRSA252), UniProt Q6GI75)
T1 sequence (Q6GI75 whole entry): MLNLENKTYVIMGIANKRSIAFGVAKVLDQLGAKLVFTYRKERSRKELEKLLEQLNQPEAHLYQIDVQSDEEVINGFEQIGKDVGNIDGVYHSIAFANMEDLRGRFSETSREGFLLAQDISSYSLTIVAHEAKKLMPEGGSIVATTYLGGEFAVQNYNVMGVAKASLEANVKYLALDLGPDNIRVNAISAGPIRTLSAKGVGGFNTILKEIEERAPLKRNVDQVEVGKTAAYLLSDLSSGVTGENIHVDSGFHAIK
Assay: Inhibition of Staphylococcus aureus FabI assessed as inhibition of bacterial growth by measuring the NADH consumption rate at 20 mins

Structure (SMILES) | IC50
NS(=O)(=O)C1C=CC(NC(=O)CCCN2CCOCC2)C=C1 (stereo unspecified) | 0.31 nM
NS(=O)(=O)c1ccc(/N=C/C2=C(Cl)CCC=C2)cc1 | 0.35 nM
COc1cc(/C=N/c2ccc(S(N)(=O)=O)cc2)ccc1C(C)=O | 0.33 nM
